Data on one compound can be found in patent publication US4342752A, “Carbalkoxymethyl derivatives of rutin poly(H-)sulfate and method of use” (American Cyanamid Company, priority 1981, dated 1982).

Values joined by “and” are separate entries in the source; they are usually repeats but may differ in a detail not shown here. Equal values may be shown once. Where a name gives a salt, the structure may show the parent alone. Read-outs that look alike come from different tables or passages of the source.

What is called inhibition is how much of the control response was suppressed.

One test addresses T1, activated human C1 (Homo sapiens, UniProt P09871).
T1 sequence (P09871 438-688 limits assumed): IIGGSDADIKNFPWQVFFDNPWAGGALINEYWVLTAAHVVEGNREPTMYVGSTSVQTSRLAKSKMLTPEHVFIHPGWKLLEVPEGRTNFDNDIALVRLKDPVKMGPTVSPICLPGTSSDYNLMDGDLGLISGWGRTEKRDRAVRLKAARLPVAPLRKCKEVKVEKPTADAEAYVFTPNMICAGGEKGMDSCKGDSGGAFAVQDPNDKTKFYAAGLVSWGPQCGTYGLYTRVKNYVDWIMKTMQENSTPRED
T1 sequence (P09871 16-437 limits assumed): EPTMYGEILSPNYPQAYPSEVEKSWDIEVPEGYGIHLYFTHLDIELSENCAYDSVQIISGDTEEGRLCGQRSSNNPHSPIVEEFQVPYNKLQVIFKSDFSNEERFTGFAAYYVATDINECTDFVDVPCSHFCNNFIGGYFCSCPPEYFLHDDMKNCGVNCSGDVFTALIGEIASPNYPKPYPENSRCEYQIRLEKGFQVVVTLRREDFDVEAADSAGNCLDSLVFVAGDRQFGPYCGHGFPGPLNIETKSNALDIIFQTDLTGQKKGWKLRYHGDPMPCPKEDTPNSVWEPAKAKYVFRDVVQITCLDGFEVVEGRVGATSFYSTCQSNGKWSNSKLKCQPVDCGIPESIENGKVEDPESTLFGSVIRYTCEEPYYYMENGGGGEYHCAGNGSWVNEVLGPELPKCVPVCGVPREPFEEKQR
The experiment in a line: Test Code 026 (C1 inhibitor). The note with it: twofold serial dilutions; higher well number indicates higher activity. It is filed as biochemical. How it is done:
(§1) An active inhibitor protects C2 from C1 and C4; (ii) Cap 50 Test--Here, appropriate amounts of the test compound are added to a pool of guinea pig serum in vitro, after which the undiluted serum capillary tube assay referred to above is run. The concentration of compound inhibiting 50% is reported; and (iii) Guinea Pig Intraperitoneal Test (GPIP)--Guinea pigs weighing about 300 g. are dosed intraperitoneally (i.p.) with 200 mg./kg. of the test compound dissolved in saline and adjusted to pH 7-8. Approximately 0.4 ml. blood samples, taken by orbital sinus puncture 30 minutes and one hour after injections, are collected directly into centrifuge tubes; 5 ml. blood samples, taken by decapitation 2 hours after injection are collected directly into beakers. The samples are allowed to clot, centrifuged, and the resultant sera are assayed for complement activity using the capillary complement assay. Percent inhibition are calculated by comparison with simultaneous controls.

Test [1] concerns complement activity of sera. Nature of the test: Guinea Pig Intraperitoneal Test (GPIP). The conditions noted are these: Cavia porcellus, ip, 200 mg./kg. i.p., read-out: In Vivo Activity (Guinea Pig) Intraperitoneal % Inhibition. The method, then:
as §1, with “[…],” for “taken by orbital sinus puncture 30 minutes and one hour after injections,”, “taken by decapitation 2 hours after injection are collected directly into” left out

Take `CCOC(=O)COc1cc(OS(=O)(=O)O)c2c(=O)c(O[C@@H]3O[C@H](CO[C@@H]4O[C@@H](C)[C@H](OS(=O)(=O)O)[C@@H](OS(=O)(=O)O)[C@H]4OS(=O)(=O)O)[C@@H](OS(=O)(=O)O)[C@H](OS(=O)(=O)O)[C@H]3OS(=O)(=O)O)c(-c3ccc(OS(=O)(=O)O)c(OS(=O)(=O)O)c3)oc2c1` [7-O-Carbethoxymethyl-rutin nona(H-sulfate)sodium salt]: the “In vitro Activity 026 (activity in wells, serial dilution assay)” value on activated human C1 was 12 wells and 10 wells. The inhibition at 200 mg/kg is 39% in test [1] (Time 2 hours), 43% in test [1] (Time 6 hours) and 55% in test [1] (Time 24 hours).
